Source: publication PMC11956017, “Design of Benzyl-triazolopyrimidine-Based NADPH Oxidase Inhibitors Leads to the Discovery of a Potent Dual Covalent NOX2/MAOB Inhibitor” (Journal of Medicinal Chemistry, 2025)

How the values were obtained:
[1] = tested on: dehydrogenase domain of csNOX5; test: NADPH depletion assay on csNOX5 dehydrogenase domain; format: biochemical, Cylindrospermum stagnale; settings: 10 μM inhibitor; 1 μM purified protein, 250 μM NADPH
Description: A series of derivatives were synthesized and tested at 10 μM against the dehydrogenase domain of NOX5 from Cylindrospermum stagnale (C. stagnale, CsNOX5; Figure 2B).
The NADPH depletion assay for IC50 determinations was performed as described[10] with modifications for covalent inhibitors, which require longer incubation times. Briefly, the catalytic activity was measured by monitoring the absorbance at 340 nm with a Cary 100 UV–vis spectrophotometer (Varian). A 1 μM portion of purified protein was added in a final volume of 130 μL of 50 mM HEPES pH 7.5 and supplemented with 300 μM FAD. Inhibitors were added at varying concentrations and incubated for 1 h at 25 °C.

csNOX5 dehydrogenase = test: Intact protein mass spectrometry of csNOX5 dehydrogenase; format: binding, Cylindrospermum stagnale; settings: intact protein ESI-qTOF-HRMS
Description: Approximately 1 mg mL^-1 protein was incubated with 300 μM FAD and 1 mM 9a at 4 °C for 1 h. A negative control reaction was performed by adding an equal volume of DMSO. Protein was denatured by adding 1% (v/v) formic acid. Chromatographic separation and mass spectrometry analysis were carried out as previously reported.[10] Analyses were carried out by ESI-qTOF-HRMS on an […] qTOF system (Sciex) embedding a Twin Sprayer ESI probe and coupled with an ExcionLC system (Sciex) controlled by SciexOS software v. 3.0.0. The injection volume was 10 μL (10 μg), and chromatographic separation was carried out with a bioZen WidePore C4 column (a 100 mm length, a 2.1 mm diameter, and a 2.6 μm particle size; Phenomenex).

human NOX1 = molecular target: T1, human NOX1 (Homo sapiens, UniProt Q9Y5S8); test: Human NOX1 isolated membranes, Amplex Red/horseradish peroxidase coupled assay; format: biochemical; settings: membrane-embedded; 40 μM NADPH; read-out: IC50 on human NOXs, NOX1 (AMPLEX RED)
T1 construct: expressed in transfected cells; host or cells: HEK293 F cells, transient transfection (pEG BacMam vector); isolated membranes; Cytosolic proteins made in E. coli
T1 sequence (Q9Y5S8 1-564): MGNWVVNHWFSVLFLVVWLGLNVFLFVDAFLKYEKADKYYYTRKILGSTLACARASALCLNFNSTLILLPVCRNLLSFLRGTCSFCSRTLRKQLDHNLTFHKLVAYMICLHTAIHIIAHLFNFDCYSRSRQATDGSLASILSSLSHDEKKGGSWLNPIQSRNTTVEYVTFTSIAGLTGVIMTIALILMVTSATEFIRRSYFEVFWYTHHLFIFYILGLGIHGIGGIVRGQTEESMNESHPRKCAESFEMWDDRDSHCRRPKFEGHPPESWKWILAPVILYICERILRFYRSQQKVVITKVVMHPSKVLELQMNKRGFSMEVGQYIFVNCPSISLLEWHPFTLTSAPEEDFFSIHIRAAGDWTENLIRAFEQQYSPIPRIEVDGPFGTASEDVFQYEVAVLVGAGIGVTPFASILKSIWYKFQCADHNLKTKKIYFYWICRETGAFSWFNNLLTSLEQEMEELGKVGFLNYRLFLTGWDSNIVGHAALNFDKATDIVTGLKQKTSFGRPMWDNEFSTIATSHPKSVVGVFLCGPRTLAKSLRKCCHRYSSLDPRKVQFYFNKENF
T1 sequence (P13498 1-195 partner): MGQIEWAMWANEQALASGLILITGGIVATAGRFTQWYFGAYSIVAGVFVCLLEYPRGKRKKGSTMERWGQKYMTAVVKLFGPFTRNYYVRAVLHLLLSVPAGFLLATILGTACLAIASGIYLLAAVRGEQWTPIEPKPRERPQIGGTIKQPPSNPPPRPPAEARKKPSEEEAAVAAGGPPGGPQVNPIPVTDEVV
Description: (§1) Activity assays for IC50 determinations were performed as previously described[40],[42] with modifications for covalent inhibitors. […] The estimated final protein concentrations based on the heme’s absorbance (ε414 nm = 131,000 M^–1 cm^–1) were 10–20 nM. Compounds were incubated for 1 h at 25 °C at varying concentrations, and reactions were initiated with 40 μM NADPH. Fluorescence was measured using a ClarioStar plate reader (excitation 572 nm/emission 583 nm).

human NOX4 = molecular target: T2, human NOX4 (Homo sapiens, UniProt Q9NPH5); test: Human NOX4 isolated membranes, Amplex Red/horseradish peroxidase coupled assay; format: biochemical; settings: membrane-embedded; 40 μM NADPH; read-out: IC50 on human NOXs, NOX4 (AMPLEX RED)
T2 construct: expressed in transfected cells; host or cells: HEK293 F cells, transient transfection (pTT22 and pYD7 vectors); isolated membranes
T2 sequence (Q9NPH5 1-578): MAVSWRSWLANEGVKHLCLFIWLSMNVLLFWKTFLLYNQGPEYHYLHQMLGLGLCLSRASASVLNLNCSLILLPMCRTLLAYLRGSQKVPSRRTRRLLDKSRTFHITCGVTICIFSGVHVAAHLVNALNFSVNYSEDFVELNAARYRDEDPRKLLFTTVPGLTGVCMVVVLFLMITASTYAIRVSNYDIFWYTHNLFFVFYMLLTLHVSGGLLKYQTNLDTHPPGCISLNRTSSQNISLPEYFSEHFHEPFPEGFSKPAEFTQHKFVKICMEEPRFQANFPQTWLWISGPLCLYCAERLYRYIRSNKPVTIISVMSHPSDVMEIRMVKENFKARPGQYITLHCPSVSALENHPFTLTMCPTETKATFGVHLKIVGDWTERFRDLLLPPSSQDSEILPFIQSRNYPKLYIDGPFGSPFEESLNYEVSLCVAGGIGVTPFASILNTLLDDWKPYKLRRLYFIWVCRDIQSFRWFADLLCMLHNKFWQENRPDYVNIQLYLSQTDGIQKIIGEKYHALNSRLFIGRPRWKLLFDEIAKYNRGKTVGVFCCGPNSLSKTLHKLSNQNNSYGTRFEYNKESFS
T2 sequence (P13498 1-195 partner): T1 sequence (P13498 1-195 partner)
Description: as §1

human NOX5 = molecular target: T3, human NOX5 (Homo sapiens, UniProt Q96PH1); test: Human NOX5 isolated membranes, Amplex Red/horseradish peroxidase coupled assay; format: biochemical; settings: membrane-embedded; 40 μM NADPH; read-out: IC50 on human NOXs, NOX5 (AMPLEX RED)
T3 construct: expressed in transfected cells; host or cells: HEK293 F cells, transient transfection (pEG BacMam vector); isolated membranes
T3 sequence (Q96PH1 1-719 isoform Q96PH1-4): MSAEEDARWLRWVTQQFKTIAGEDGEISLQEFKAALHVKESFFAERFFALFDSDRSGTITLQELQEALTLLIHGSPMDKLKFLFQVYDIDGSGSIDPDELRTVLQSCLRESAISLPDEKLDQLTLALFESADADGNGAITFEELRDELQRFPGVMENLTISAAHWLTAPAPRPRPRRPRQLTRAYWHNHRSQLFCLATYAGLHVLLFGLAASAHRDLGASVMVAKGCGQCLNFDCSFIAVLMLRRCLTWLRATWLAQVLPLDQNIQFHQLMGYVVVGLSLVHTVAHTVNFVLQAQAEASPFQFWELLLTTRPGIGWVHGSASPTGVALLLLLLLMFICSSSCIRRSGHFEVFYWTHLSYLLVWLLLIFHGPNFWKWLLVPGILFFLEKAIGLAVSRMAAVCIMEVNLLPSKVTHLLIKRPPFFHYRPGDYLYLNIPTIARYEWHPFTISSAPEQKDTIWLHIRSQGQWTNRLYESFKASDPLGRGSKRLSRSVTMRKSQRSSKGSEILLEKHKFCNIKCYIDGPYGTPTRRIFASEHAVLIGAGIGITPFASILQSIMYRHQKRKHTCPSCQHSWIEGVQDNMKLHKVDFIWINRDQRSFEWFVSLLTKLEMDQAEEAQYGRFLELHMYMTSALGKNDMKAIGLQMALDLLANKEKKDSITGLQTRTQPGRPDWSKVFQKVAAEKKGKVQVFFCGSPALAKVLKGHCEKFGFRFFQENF
Description: as §1

NOX2 = NOX2 (Homo sapiens, UniProt P04839); test: Human NOX2 isolated membranes, MCLA assay; format: biochemical; set-up: NOX2 was expressed as native protein in X-CGD PLB-985 cells transduced with the RD114 pseudotyped MFGS-NOX2 vector; expressed in transfected cells; host or cells: X-CGD PLB-985 cells transduced with MFGS-NOX2; isolated membranes; Cytosolic proteins made in E. coli; settings: membrane-embedded; 240 μM NADPH; read-out: IC50 on human NOXs, NOX2 (MCLA)
Description: IC50 determinations were performed as described, with the same aforementioned modifications for covalent inhibition. Briefly, 20 μg of NOX2-p22^phox membranes was added to a reaction mix with a 65 mM sodium phosphate buffer (pH 7.0), 0.5 μM FAD, 130 μM LiDS, 160 nM p67^phox, p47^phox, Rac1 Q61L, and 1 μM MCLA or 200 μM bovine cytochrome c. The estimated final protein concentration based on the heme’s absorbance was 60 nM. Compounds were incubated for 1 h at 25 °C, at varying concentrations. The reaction started by adding 240 μM NADPH, and measurements were taken by using a GloMax plate reader (Promega; MCLA) or a Cary 100 UV–vis spectrophotometer (Varian; cytochrome c).

Row | Structure (SMILES) | % INHIBITION csNOX5 DEHYDROGENASE DOMAIN [1] [%] | IC50 (human NOX1) [µM] | IC50 (human NOX4) [µM] | IC50 (human NOX5) [µM] | IC50 (NOX2) [µM] | covalent binding to csNOX5 dehydrogenase active-site cysteine (csNOX5 dehydrogenase)
1 | Oc1ncnc2c1nnn2Cc1ccccc1 [Compound 1, 3-benzyl-3H-[1,2,3]triazolo[4,5-d]pyrimidin-7-ol] | 0 |  |  |  |  | 
2 | CC(C)(C)OC(=O)N1CCN(c2ncnc3c2nnn3Cc2ccccc2)CC1 [Compound 5, tert-Butyl 4-(3-benzyl-3H-[1,2,3]triazolo[4,5-d]pyrimidin-7-yl)piperazine-1-carboxylate] | 16.9 ± 8.2 |  |  |  |  | 
3 | C=CC(=O)N1CCN(c2ncnc3c2nnn3Cc2ccccc2)CC1 [Compound 7a, 1-(4-(3-Benzyl-3H-[1,2,3]triazolo[4,5-d]pyrimidin-7-yl)piperazin-1-yl)prop-2-en-1-one] | 12.0 ± 3.0 |  |  |  |  | 
4 | CC(=O)N1CCN(c2ncnc3c2nnn3Cc2ccccc2)CC1 [Compound 7b, 1-(4-(3-Benzyl-3H-[1,2,3]triazolo[4,5-d]pyrimidin-7-yl)piperazin-1-yl)etan-1-one] | 40.5 ± 14.8 |  |  |  |  | 
5 | C=CC(=O)N1CCC(Nc2ncnc3c2nnn3Cc2ccccc2)CC1 [Compound 7c, 1-(4-((3-Benzyl-3H-[1,2,3]triazolo[4,5-d]pyrimidin-7-yl)amino)piperidin-1-yl)prop-2-en-1-one] | 41.2 ± 9.7 |  |  |  |  | no covalent binding
6 | C=CC(=O)Nc1ccc(Sc2ncnc3c2nnn3Cc2ccccc2)cc1 [Compound 7d, N-(4-((3-Benzyl-3H-[1,2,3]triazolo[4,5-d]pyrimidin-7-yl)thio)phenyl)acrylamide] | 28.1 ± 2.8 |  |  |  |  | 

Now from value to molecule, other results behind:

Row | % INHIBITION csNOX5 DEHYDROGENASE DOMAIN [1] [%] | IC50 (human NOX1) [µM] | IC50 (human NOX4) [µM] | IC50 (human NOX5) [µM] | IC50 (NOX2) [µM] | Structure (SMILES) | covalent binding to csNOX5 dehydrogenase active-site cysteine (csNOX5 dehydrogenase)
7 | 15.1 ± 2.5 |  |  |  |  | CS(=O)(=O)Oc1ncnc2c1nnn2Cc1ccccc1 [Compound 2] | 
8 | 28.0 ± 9.2 |  |  |  |  | Nc1ncnc2c1nnn2Cc1ccccc1 [Compound 4, 3-Benzyl-3H-[1,2,3]triazolo[4,5-d]pirimidin-7-amina] | 
9 | 7.0 ± 3.2 |  |  |  |  | Cl.c1ccc(Cn2nnc3c(N4CCNCC4)ncnc32)cc1 [Compound 6, 3-Benzyl-7-(piperazin-1-yl)-3H-[1,2,3]triazolo[4,5-d]pyrimidine Hydrochloride] | 
10 |  | > 100 | > 100 | > 100 | > 100 | CCCN(C)Cc1ccc(Cn2nnc3c(Sc4nc5ccccc5o4)ncnc32)cc1 [Compound 9b, N-(4-((7-(Benzo[d]oxazol-2-ylthio)-3H-[1,2,3]triazolo[4,5-d]pyrimidin-3-yl)methyl)benzyl)-N-methylpropan-1-amine] | 
11 |  | > 100 | > 100 | 14.3 ± 5.9 | 12.9 ± 2.2 | CN(Cc1ccccc1)Cc1ccc(Cn2nnc3c(Sc4nc5ccccc5o4)ncnc32)cc1 [Compound 9c, N-(4-((7-(Benzo[d]oxazol-2-ylthio)-3H-[1,2,3]triazolo[4,5-d]pyrimidin-3-yl)methyl)benzyl)-N-methyl-1-phenylmethanamine] | 
12 |  | > 100 | > 100 | 4.72 ± 3.7 | 8.1 ± 0.2 | c1ccc2oc(Sc3ncnc4c3nnn4Cc3ccc(CN4CCCCC4)cc3)nc2c1 [Compound 9d, 2-((3-(4-(Piperidin-1-ylmethyl)benzyl)-3H-[1,2,3]triazolo[4,5-d]pyrimidin-7-yl)thio)benzo[d]oxazole] | 
13 |  | > 100 | > 100 | 2.06 ± 0.96 | 1.9 ± 0.2 | c1ccc2oc(Sc3ncnc4c3nnn4Cc3ccc(CN4CCOCC4)cc3)nc2c1 [Compound 9e, 2-((3-(4-(Morpholinomethyl)benzyl)-3H-[1,2,3]triazolo[4,5-d]pyrimidin-7-yl)thio)benzo[d]oxazole] | 
14 |  | > 100 | > 100 | 46.6 ± 9.1 | 13.8 ± 2.8 | FC1(F)CC2(CCN(Cc3ccc(Cn4nnc5c(Sc6nc7ccccc7o6)ncnc54)cc3)CC2)C1 [Compound 9f, 2-((3-(4-((2,2-Difluoro-7-azaspiro[3.5]nonan-7-yl)methyl)benzyl)-3H-[1,2,3]triazolo[4,5-d]pyrimidin-7-yl)thio)benzo[d]oxazole] | 
